Results as given in paper PMC11678782, “The Antioxidant and Anti-Inflammatory Activities of the Methanolic Extract, Fractions, and Isolated Compounds from Eriosema montanum Baker f. (Fabaceae)” (Molecules, 2024).
Values after ≈ are worked out from the molar mass of the structure shown. “Also recorded” adds a separate entry of the source.

What was measured:
[1] = DPPH radical scavenging assay; details: 30 min, 517 nm
Experimental: (§1) Three in vitro antioxidant assays, namely, 2,2′-azinobis-(3-ethylbenzothiazoline-6-sulfonic acid (ABTS), 2,2′-diphenyl-1-picrylhydrazyl (DPPH), and ferric ion reducing antioxidant power (FRAP), were used to determine the antioxidant activity according to methods previously reported. Ascorbic acid (0 to 200 μg/mL) was used as positive control in these experiments, and Formula (1) below allowed us to evaluate the percentage of radical scavenging capacity. The inhibitory concentration (IC50) values were evaluated by plotting a nonlinear graph of percentage radical scavenging capacity versus logarithm of tested concentrations. Scavenging capacity (%) = [(A0 − A1)/A0] × 100(1) where A0 is absorbance of negative control, and A1 is absorbance of extract with ABTS^•+ radical cation.
To be able to determine the DPPH^• scavenging capacity of EMME, we performed a serial dilution of 40 μL of the sample (1 mg/mL) with methanol on a 96-well microtiter plate, with 160 μL of solution of DPPH^• thereafter (25 μg/mL). The incubation at 25 °C in the dark was performed after 30 min, with the absorbance values measured at 517 nm on a SpectraMax iD3 multi-mode microplate against a blank (extract plus methanol without DPPH^•). […]. Methanol with DPPH^• served as the negative control. Using Formula (1), the DPPH scavenging capability was calculated at the measured concentrations above, and as previously enumerated, the IC50 values were also calculated, as indicated in the previously described procedure.
(§2) The IC50 values were calculated for each biological experiment using the nonlinear regression curve of the % inhibitory activity versus the logarithm (log10) of the various tested concentrations using GraphPad Prism 6.0 software (GraphPad Software, Inc., San Diego, CA, USA). The data are shown as mean ⁱ SEM (standard error of the mean) values, and all biological experiments were conducted in triplicate (n = 3). The statistical analysis was conducted using GraphPad Prism 6.0 software (GraphPad Software, Inc., San Diego, CA, USA). One-way analysis of variance (ANOVA) was used to compare the data across the tested samples and/or controls, and Student–Newman–Keuls or Dunnett’s tests were then performed. A p-value of less than 0.05 indicated a significant difference in the results.

[2] = tested on: LPS-stimulated RAW 264.7 cells; experiment: NO production inhibition in LPS-stimulated RAW 264.7 cells (Griess); type: cell-based, murine; details: for IC50: Mus musculus, RAW264.7, RAW 264.7, 2 h pre-treatment, 500 ng/mL LPS 24 h; for Inhibition of LPS-induced NO production: RAW 264.7, single-concentration test at 100 µg/mL, vs control cells
Experimental: […] in a humidified environment containing 5% CO2 and 95% air. For NO and ROS production inhibition assays, the cytotoxic effect of tested samples at 100 µg/mL after 24 h of exposure was initially measured on RAW 264.7 cells (10,000 cells per well) using the standard MTT assay. Then, for NO production inhibition assay, RAW 264.7 cells were pre-treated with tested samples at 100 µg/mL for 2 h followed by addition of culture medium containing 500 ng/mL of lipopolysaccharide (LPS) (Merck, Darmstadt, Germany). After 24 h of incubation under standard cell-culture conditions, NO released was measured in cell supernatants using the Griess reagent (Sigma Aldrich, Darmstadt, Germany), and a SpectraMax iD3 multi-mode microplate reader (Molecular Devices, San Jose, CA, USA) was used to capture the absorbance readings at 540 nm. The ability of each tested material to reduce nitric oxide synthesis by LPS-stimulated RAW 264.7 macrophages in comparison to the negative control (cells treated with DMSO at 0.5% and LPS without extract) was used to calculate the percentage of NO production inhibition.
as §2

[3] = Ferric reducing antioxidant power (FRAP) assay; details: relative to 200 µg/mL gallic acid, 700 nm
Experimental: as §1
The generally used and almost standard method for performing the FRAP test is that developed by Benzie and Strain [15]. Indeed, the antioxidant power is determined in a colorimetric reaction linked to redox in which an intense blue-colored ferroustripyridyltriazine (Fe^2+-TPTZ) complex is obtained via reduction at a low pH of ferrictripyridyltriazine (Fe^3+-TPTZ). The incubation of a quantity of 50 μL of EMME (1.56 to 200 μg/mL) or 200 μg/mL of gallic acid (Merck, Lethabong, South Africa) on a 96-well plate was carried out with 50 μL of 1% potassium ferricyanide (prepared in 0.2 M of sodium phosphate buffer, pH 6.6) for 30 min at 50 °C. Then, 50 μL of 10% trichloroacetic acid (TCA), 40 μL of distilled water, and 10 μL of 0.1% ferric chloride were added, respectively. The absorbance values were recorded on a blank (extract plus sodium phosphate buffer) at 700 nm on a SpectraMax iD3 multi-mode microplate reader (Molecular Devices, San Jose, CA, USA); the FRAP activity was indicated as inhibition percentage of 200 μg/mL of gallic acid.
as §2

CCCCCCCCCCCCCCCC [Compound 1, n-hexadecane]
IC50 DPPH [1]: >100 µg/mL | IC50 [2]: > 100 µg/mL | IC50 FRAP [3]: >200 µg/mL

CCCCCCCCCCCCCCCCCCCCCCCO [Compound 3, tricosan-1-ol]
IC50 DPPH [1]: >100 µg/mL | IC50 [2]: > 100 µg/mL | IC50 FRAP [3]: >200 µg/mL

O=c1c2c(O)cc(O)cc2oc2oc3cc(O)ccc3c12 [Compound 4, lupinalbin A]
IC50 DPPH [1]: >100 µg/mL | IC50 [2]: > 100 µg/mL | IC50 FRAP [3]: >200 µg/mL

O=c1c(-c2ccc(O)cc2)coc2cc(O[C@@H]3O[C@H](CO)[C@@H](O)[C@H](O)[C@H]3O)cc(O)c12 [Compound 5, genistin]
IC50 DPPH [1]: 99.89 ± 1.26 µg/mL (≈ 231 µM) | IC50 DPPH ([1]; listed as genistin): 91.02 µg/mL (≈ 211 µM) | IC50 [2]: 66 ± 4.21 µg/mL (≈ 153 µM) | Inhibition of LPS-induced NO production [2]: significantly inhibited | Inhibition of LPS-induced NO production ([2]; listed as Genistin (5)): able to inhibit | Inhibition of LPS-induced NO production ([2]; listed as genistin (5)): moderate activity; also recorded: moderately effective | IC50 FRAP [3]: >200 µg/mL

CO[C@H]1[C@H](O)[C@@H](O)[C@@H](O)[C@H](O)[C@@H]1O [Compound 6, D-pinitol]
IC50 DPPH [1]: >100 µg/mL | IC50 [2]: > 100 µg/mL | IC50 FRAP [3]: >200 µg/mL

CC[C@H](/C=C/[C@@H](C)[C@H]1CC[C@H]2[C@@H]3CC=C4C[C@@H](O[C@@H]5O[C@H](CO)[C@@H](O)[C@H](O)[C@H]5O)CC[C@]4(C)[C@H]3CC[C@]12C)C(C)C [Compound 7, stigmasterol glucoside]
IC50 DPPH [1]: >100 µg/mL | IC50 [2]: > 100 µg/mL | IC50 FRAP [3]: >200 µg/mL
